Measured values taken from PMC10397409, “The action of physiological and synthetic steroids on the calcium channel CatSper in human sperm” (Frontiers in Cell and Developmental Biology, 2023).
Like-named read-outs stand apart in the source and are kept apart here.

How the values were obtained:
CatSper = target: T1, CatSper (Homo sapiens, UniProt Q7RTX7+Q86XQ3+Q8NEC5+Q96P56); assay: Inhibition of P4-induced Ca2+ influx in human sperm (screen 2 inhibitors); format: cell-based; conditions: for Max P4 inhibition (%) (± SD): 3 independent experiments
T1 construct: Motile spermatozoa were selected by a ‘swim-up’ procedure; endogenous in cells; host or cells: motile human spermatozoa (swim-up) from healthy donors

human sperm = assay: Acrosome reaction in live human sperm (PSA-FITC flow cytometry); format: cell-based; conditions: 45 min; for cells with induced acrosome reaction: steroid 10 µM, capacitated sperm, increase not significant
Procedure: The evaluation of acrosome reaction in live human sperm cells was performed using a modified version of a previously described method ([Zoppino et al., 2012]). Briefly, swim-up recovered motile spermatozoa were allowed to capacitate for 4 h at 37°C in capacitating media (HTF+) containing: 93.8 mM NaCl, 4.7 mM KCl, 0.2 mM MgSO4, 0.369 mM KH2PO4, 2.04 mM CaCl2, 20.98 mM HEPES, 2.78 mM glucose, 21.4 mM Na-lactate, 25 mM NaHCO3, 6.6 µM Na-pyruvate, and the pH was adjusted to 7.35. Capacitated sperm were then incubated for 30 min with 5 μg/mL Pisum sativum agglutinin conjugated with fluorescein isothiocyanate (PSA-FITC) and 10 μg/mL Hoechst-33342. Samples were centrifuged at 700 x g for 10 min at room temperature to remove excess dye and resuspended in HTF+. Sperm were then incubated for 45 min in the absence (DMSO) or presence of the steroids at 10 μM, or positive control P4 at 10 µM. The ionophore A23187 was also used as a positive control and incubated with sperm at 2 µM for 30 min only. PI (0.5 μg/mL) was then added to all samples which were analyzed using BDFACSAria. FITC-PSA fluorescence was detected by excitation at 475 nm and emission at 560/35 nm, PI was detected by excitation at 530 nm and emission at 675/75 nm and Hoechst was detected by excitation at 346 nm and emission at 460 nm. Hoechst-positive and PI-negative cells were classified as live cells. Doublet exclusion was performed by two-dimensional dot plot analysis of forward-scatter width (FSC-W) versus forward-scatter height (FSC-H), and side-scatter width (SSC-W) versus side-scatter height (SSC-H) on the pre-selected singlets. Data were collected from 40,000 […] per sample to define the sperm population. Based on the selected population, PI-negative and PSA-FITC-positive cells were selected as live acrosome reacted cells, whereas PI-negative and PSA-FITC-negative cells were selected as live acrosome intact cells.

[1] = IC50 (±SD), inhibition of P4-induced Ca2+ response, dose-response 90 µM to 0.3 nM
[2] = Mean IC50 (P4) µM (±SD), P4-induced response, pooled from 3 independent experiments

Structure (SMILES) | Max P4 inhibition (%) (± SD) (CatSper) | IC50 (CatSper; [1]) | IC50 (CatSper; [2]) | cells with induced acrosome reaction (human sperm) | IC50 (CatSper; inhibition of P4-induced Ca2+ response, dose-response 90 µM to 0.3 nM, read-out: IC50 (±SD)) | effect on acrosome reaction (AR) (human sperm; steroids 10 µM, P4 10 µM)
C[C@]12CC[C@H](O)C[C@@H]1CC[C@@H]1[C@@H]2CC[C@]2(C)C(=O)CC[C@@H]12 [Epiandrosterone] | 72 (±2) % | 0.628 µM | 0.625 µM | more than 10% | – | –
CC(=O)[C@H]1CC[C@H]2[C@@H]3CC=C4C[C@@H](O)CC[C@]4(C)[C@H]3CC[C@]12C [Pregnenolone] | 82 (±5) % | 0.199 µM | – | more than 10% | – | –
CC(=O)[C@H]1CC[C@H]2[C@@H]3CCC4=CC(=O)CC[C@]4(C)[C@H]3CC[C@]12C [Progesterone] | 79 (±7) % | – | – | – | 0.006 µM | only slightly increased the AR
C[C@]12Cc3c[nH]nc3C[C@@H]1CC[C@@H]1[C@@H]2CC[C@@]2(C)[C@H]1CC[C@]2(C)O [Stanozolol] | 96 (±2) % | 0.194 µM | 0.19 µM | more than 10% | – | –
